{"source": "paper PMC9146374", "about": "“Extra Virgin Olive Oil Secoiridoids Modulate the Metabolic Activity of Dacarbazine Pre-Treated and Treatment-Naive Melanoma Cells” (Molecules, 2022)", "key": {"A375 melanoma cell line": {"system": "A375 melanoma cell line", "assay": "MTS assay of metabolic activity (cell viability), 48 h exposure, A375 cells", "type": "cell-based, human", "details": "for IC60 / IC50: A375, 48 h, MTS, ± SEM; for IC60: concentration decreasing biological activity to 60%", "experimental": "(§1) Biological activity upon treatment with EVOO-PEs, DTIC, OCEIN, and OCAL was evaluated using an MTS assay in in vitro experimental models, including the A375 and A375M cancer cell lines and HaCaT immortalized cell line. […] Due to the fast cell growth rate, a longer incubation period or denser initial seeding caused the overgrowth of untreated cells. In comparison, a shorter incubation period or lower initial density caused the effect of the test substances to be more difficult to detect. Therefore, the experiments were performed within a 48-hour timeframe. In addition, to avoid the misinterpretation of the results, we checked whether the vehicle, which was DMSO for the test substances, had any effect on metabolic activity by exposing each cell type to 0.2 and 0.4% DMSO, i.e., to the highest final DMSO concentrations achieved with the highest final concentrations of test substances. […] Accordingly, the effects of the test substances were determined as relative biological activities (in terms of cell viability, i.e., cell survival) compared to the untreated cells (controls). The cells were treated with a series of dilutions made by diluting full strength (100%) EVOO-PE to concentrations of 0.025–0.400 % (v/v) of EVOO-PE in the medium.\n(§2) Cells were grown in complete cell culture media, consisting of RPMI 1640, 2 mmol/L glutamine, 10% heat-inactivated foetal bovine serum (FBS), penicillin (100 IU/mL; 1 IU 67.7 µg/mL), and streptomycin (100 µg/mL). Cultures were maintained in a moisturized atmosphere with 5% CO2 at 37 °C and 95% relative humidity. All experiments were performed on cells between passages 4 and 8. The biological activity of the three EVOO-Pes, DTIC, OCEIN, and OCAL, as well as biological activity of the three EVOO-PEs following 6 h pre-incubation with DTIC was determined using a CellTiter 96®AQueous One Solution Cell Proliferation Assay. In short, 100 µL of cell cultures was seeded into 96-well tissue culture plates (A375 and HaCaT at a concentration of 2 × 10^3 cells/well, A375M at 7 × 10^3 cells/well). The next day, the medium was aspirated and media containing different concentrations of compounds were added to each well. All test compounds except DTIC were initially dissolved in DMSO and serially diluted in culture medium to obtain the final concentrations. DTIC was initially dissolved in culture medium, warmed to 37 °C, activated during 1 h exposure to light, and diluted in culture medium. The controls contained the test model cells and culture medium (containing either the complete medium or the DMSO in the highest final concentration, 0.2% and 0.4%) but no test compounds. The cells were incubated for 48 h before biological activity was measured. When investigating the combined effect, we exposed cells to DTIC for 6 h, removed the medium, and exposed the cells to medium containing EVOO-PE extracts for the next 24 h. In addition to the non-treated cells, the controls for experiments with DTIC pre-incubation were cells that had been exposed to DTIC for 6 h and cultured in a complete medium afterwards (without EVOO-PE). After incubation, media were aspirated, and 90 µL of serum-free medium containing MTS was added, according to the manufacturer’s instructions. After 1.5 h of incubation in the dark, the absorbance was measured at a wavelength of 490 nm using a microplate reader, Victor2-1420 Multilabel Counter (PerkinElmer, Yokohama, Japan). A negative control (medium without cells) was used as a blank. All experiments were performed in hexaplicate.\n(§3) The GraphPad Prism software version 9.0.0 for Windows (GraphPad Software, San Diego, CA, USA), was used for the determination of inhibitory concentration as well as for statistical analysis. The normality of the data distribution was accessed using Kolmogorov–Smirnov and Shapiro–Wilk tests. The IC60 and IC50 values (concentrations that reduced cell growth to 60% or 50% of the initial value, respectively) were determined using a nonlinear regression curve fit. […]"}, "[1]": {"system": "A375M metastatic melanoma cell line", "assay": "MTS assay of metabolic activity (cell viability), 48 h exposure, A375M cells", "type": "cell-based, human", "details": "for effect on A375M cells: Figure S5b", "experimental": "as §1\nas §2, with “The controls contained the test model cells and culture medium (containing either the complete medium or the DMSO in the highest final concentration, 0.2% and 0.4%) but no test compounds.” left out, “When investigating the combined effect, we exposed cells to DTIC for 6 h, removed the medium, and exposed the cells to medium containing EVOO-PE extracts for the next 24 h. In addition to the non-treated cells, the controls for experiments with DTIC pre-incubation were cells that had been exposed to DTIC for 6 h and cultured in a complete medium afterwards (without EVOO-PE). After incubation, media were aspirated, and 90 µL of serum-free medium containing MTS was added, according to the manufacturer’s instructions.” left out, “A negative control (medium without cells) was used as a blank. All experiments were performed in hexaplicate.” left out"}, "[2]": {"system": "HaCaT immortalized keratinocytes", "assay": "MTS assay of metabolic activity (cell viability), 48 h exposure, HaCaT cells", "type": "cell-based", "details": "± SEM, DTIC applied up to 1000 µM, italic values extrapolated; for IC50: Homo sapiens", "experimental": "as §1, §2, §3"}, "A375 cells": {"system": "A375 cells", "details": "cited from earlier work; for IC50: homemade isolated OCAL purified to 95%"}, "501Mel melanoma cells": {"system": "501Mel melanoma cells", "design": "method as in earlier work", "details": "ref 22 (Carpi et al.); read-out: IC50 of OCEIN on 501Mel melanoma cells; cited from earlier work"}}, "note": "Where “and” joins values, the source holds several entries; their conditions need not be identical. Equal values may be shown once. Read-outs that look alike come from different tables or passages of the source.", "data": [{"smiles": "CN(C)/N=N/c1[nH]cnc1C(N)=O", "note": "[DTIC, dacarbazine]", "values": [{"measurement": "IC60", "setting": "A375 melanoma cell line", "value": "214.358 ± 13.449", "unit": "µM"}, {"measurement": "IC50", "setting": "A375 melanoma cell line; Homo sapiens, A-375, 48 h", "value": 362, "unit": "µM"}, {"measurement": "IC60", "setting": "[1]; A375M, ± SEM, DTIC applied up to 1000 µM, interpret with caution", "value": "709.780 ± 99.634", "unit": "µM"}, {"measurement": "IC50", "setting": "[1]; Homo sapiens, A375M, ± SEM, DTIC applied up to 1000 µM, interpret with caution", "value": "872 ± 62.2", "unit": "µM"}, {"measurement": "IC50", "setting": "[2]", "value": "> 1000", "unit": "µM"}, {"measurement": "IC60", "setting": "[2]", "value": "1137 ± 93.752", "unit": "µM"}]}, {"smiles": "C/C=C(/C=O)[C@@H](CC=O)CC(=O)OCCc1ccc(O)cc1", "note": "[OCAL, oleocanthal]", "values": [{"measurement": "IC60", "setting": "A375 melanoma cell line", "value": "58.488 µM and 58.488 ± 1.836 µM"}, {"measurement": "IC50", "setting": "A375 melanoma cell line", "value": "67.5 ± 1.86", "unit": "µM"}, {"measurement": "IC50", "setting": "A375 melanoma cell line; Homo sapiens, A-375, 48 h", "value": 67, "unit": "µM"}, {"measurement": "viability at 60 µM", "setting": "A375 melanoma cell line; Homo sapiens, A-375, 60 µM OCAL, cell line not given, read-out: viability compared to control", "value": "~80", "unit": "%"}, {"measurement": "effect on A375M cells", "setting": "[1]", "value": "failed to provoke any effect"}, {"measurement": "IC50", "setting": "[2]", "value": "130 ± 3.21", "unit": "µM"}, {"measurement": "IC60", "setting": "[2]", "value": "112.827 ± 2.904", "unit": "µM"}, {"measurement": "viability compared to control", "setting": "A375 cells; 60 µM OCAL (highest applied), cell line not given, ref 25 (Gu et al.)", "value": "~ 80%"}, {"measurement": "IC50", "setting": "A375 cells; ref 24 (Fogli et al.)", "value": 13.6, "unit": "µM"}, {"measurement": "IC50", "setting": "A375 cells; ref 25 (Gu et al.)", "value": "~20", "unit": "µM"}]}, {"smiles": "CC=C(C=O)C(CC=O)CC(=O)OCCc1ccc(O)c(O)c1", "note": "(centres unmarked) [OCEIN, oleacein]", "values": [{"measurement": "IC60", "setting": "A375 melanoma cell line", "value": "101.052 µM and 101.052 ± 4.610 µM"}, {"measurement": "IC50", "setting": "A375 melanoma cell line", "value": "113 ± 4.92", "unit": "µM"}, {"measurement": "IC50", "setting": "A375 melanoma cell line; Homo sapiens, A-375, 48 h", "value": 112, "unit": "µM"}, {"measurement": "effect on A375M cells", "setting": "[1]", "value": "failed to provoke any effect"}, {"measurement": "IC50", "setting": "[2]", "value": "114 ± 2.3", "unit": "µM"}, {"measurement": "IC60", "setting": "[2]", "value": "103.061 ± 2.086", "unit": "µM"}, {"measurement": "IC50", "setting": "501Mel melanoma cells", "value": 82, "unit": "µM"}]}]}
